Measurements taken from US6232348A, “Hydroxymethyl derivatives of 2-amino-1,2,3,4-tetrahydronaphthalene as cardiovascular agent” (Zambon Group S.p.A., priority 1997, dated 2001).

Tests used:
[1] = test system: D1; experiment: D1 activity on the rabbit splenic artery (RSA); conditions: rings contracted with U46619; agonistic activity at the peak of the effect; cumulative administration
Experimental: Evaluation of the D1 Activity on the Rabbit Splenic Artery (RSA)
Artery rings were prepared according to Semeraro et al., Naunyn. Schnied. Arch. Pharmacol., 1990, 342, 539. These were contracted with U46619 (9,11-dideoxy-11α,9α -epoxy-methanprostaglandine F2α) at a submaximal concentration of […]. The tested compounds were cumulatively administered.
As reference compound (S)-N-propyl-N-{6-[2-(2-methoxyphenoxy)-ethylamino]-hexyl}-5,6-dihydroxy-1,2,3,4-tetrahydro-2-naphthylamine dihydrochloride (Ref. A), described in example 6 of the international patent application No. WO 93/19036 was employed. Furthermore a compound of the invention was compared with its corresponding compound having in 5-position a hydroxy group in the place of a hydroxymethyl group. i.e. Compound 22 of the international patent application No. WO 96/08228, (S)-N-propyl-N-{6-[2-(4-methylsulfonylphenyl)-ethylamino]hexyl}-5,6-dihydroxy-1,2,3,4-tetrahydro-2-naphthylamine dihydrobromide (Ref. B). The agonistic activity was evaluated at the peak of the effect and expressed as potency ratio (EC50 of Ref. A/EC50 of the tested compound), as shown in Table 1.

[2] = test system: D2; experiment: D2 activity in the rabbit ear artery (REA); set-up: species or system New Zealand rabbit; conditions: electrically stimulated artery rings; agonistic activity at the peak of the effect; cumulative administration
Experimental: Evaluation of the D2 Activity in the Rabbit Ear Artery (REA)
Artery rings were prepared following the method described by Steinsland et al., Science, 1978, 443, 199, modified as follows.
Male New Zealand rabbits (weighing 2.5-3 Kg) were sacrificed by a pentobarbital intravenous injection and bled. The central ear artery was cut into 3 mm-rings. The samples were placed into a 25 ml-bath containing a Krebs solution (mM/l): sodium chloride 118, potassium chloride 4.7, calcium chloride 2.5, magnesium sulphate 1.2, sodium hydrogenocarbonate 25, potassium biphosphate 1.2, glucose 11.1, balanced with oxygen 95%/carbon dioxide 5% and maintained at 35±1° C. The Krebs solution was added with EDTA (10 μM) to present the cathecolamine oxidation, with desipramine (0.1 μM) and corticosterone (30 μM) to stop the neuronal and extraneuronal cathecolamine re-uptake.
The samples were electrically stimulated (10 Hz, 1 msec., 40-80 mA, 500 msec long) at intervals of 5 minutes.
The tested compounds were cumulatively administered.
As reference compounds the reference compounds A and B above were employed.
The agonistic activity was evaluated at the peak of the effect and expressed as potency ratio (EC50 of Ref. A/EC50 of the tested compound), as shown in Table 1.

[3] = Hypotensive activity in the anaesthetized dog; assay type: in vivo; conditions: intraduodenal (oral) administration, anaesthetized Beagle dogs; 184 nmoles/kg (compound of the invention), 5.52 nmoles/kg (Ref. B), doses equally active i.v.; 0-360 min
Experimental: Evaluation of the Hypotensive Activity in the Dog
Beagle dogs were anhaestetized with sodium pentobarbital (30 mg/kg i.v.) and a catheter was put in their carotid artery to measure the blood pressure. The catheter was connected with a pressure transductor. The compounds were administered by a catheter put in the duodenum. The effect on the average blood pressure is expressed as average effect with respect to the test time (Eavg =AUC0-360 /minutes) according to what described by Fettner S. H. et al., Eur. J. Clin. Pharmacol., 48:351-359, 1995. As reference compound the reference compound B above (Ref. B) was used. The controls were treated with the vehicle only.
The doses used for the oral administration were selected on the basis of the hypotensive activity data obtained after intravenous administration.

[4] = Absolute oral bioavailability in the dog; assay type: in vivo; conditions: Beagle dogs (4), 1 mg/kg oral by gavage vs 0.2 mg/kg bolus, domperidone pretreatment
Experimental: Evaluation of the Absolute Oral Bioavailability
Four Beagle dogs were intramuscularly treated with 20 mg of domperidone (to avoid emesis) and, after 60 minutes, with a bolus of 0.2 mg/kg of a solution of the compound of example 13. The solution of this compound was prepared by dissolving 10 mg thereof in 100 μl of ethanol and 380 μl of 0.1N HCl, the resulting solution being brought to 10 ml with water. Appropriate volumes of this solution were administered to obtain the desired dose based on the dog weight.
Venous blood sample (3 ml) were collected before drug administration and the following times after dosing: 2.5, 5, 10, 15, 20, 30, 45, 60, 90, 120, 180, 240, 300 and 360 minutes.
After a washout period of 7 days, the same 4 Beagle dogs were intramuscularly treated with 20 mg of domperidone and, after 60 minutes, orally treated by gavage with the compound of Example 13 at the dose of 1 mg/kg. […]
The following pharmacokinetic parameters were determined by non-compartmental analysis from the individual plasma concentration of the compound of Example 13: […]
AUC(()-t), the area under the plasma concentration-time curve between time zero and the last concentration observed, estimated by the linear trapezoidal rule; Absolute bioavailability (F), the percentage of oral dose that is systemically available, calculated according to the following equation: [formula] […]

| D1 activity (RSA), potency ratio (EC50 of Ref. A/EC50 of the tested compound) [1] | D2 activity (REA), potency ratio (EC50 of Ref. A/EC50 of the tested compound) [2] | Absolute oral bioavailability (F) ([4]; listed as Example 13, 1 mg/kg) | bioavailability ([4]; dog, plasma, po, 1 mg/kg, read-out: Absolute oral bioavailability (F)) | SMILES | average effect on blood pressure (Eavg = AUC0-360/minutes) [3] |
| --- | --- | --- | --- | --- | --- |
| 2.5 | 1.25 | 28-43% | 38.8 ± 7.2% | CCCN(CCCCCCNCCc1ccc(S(C)(=O)=O)cc1)[C@H]1CCc2c(ccc(O)c2CO)C1 [Example 7, (S)-N-propyl-N-(6-(2-(4-methylsulfonylphenyl)ethylamino)hexyl)-5-hydroxymethyl-6-hydroxy-1,2,3,4-tetrahydro-2-naphthylamine] | -17.4±3.0 mmHg |
| 1 | 1 | – | – | CCCN(CCCCCCNCCOc1ccccc1OC)[C@H]1CCc2c(ccc(O)c2O)C1.Cl.Cl [Ref. A, (S)-N-propyl-N-{6-[2-(2-methoxyphenoxy)-ethylamino]-hexyl}-5,6-dihydroxy-1,2,3,4-tetrahydro-2-naphthylamine dihydrochloride] | – |
| 50 | 3.3 | – | – | Br.Br.CCCN(CCCCCCNCCc1ccc(S(C)(=O)=O)cc1)[C@H]1CCc2c(ccc(O)c2O)C1 [Ref. B, (S)-N-propyl-N-{6-[2-(4-methylsulfonylphenyl)-ethylamino]hexyl}-5,6-dihydroxy-1,2,3,4-tetrahydro-2-naphthylamine dihydrobromide] | -3.5±3.9 mmHg |
